Assay results from patent US11504310B2, “Aqueous microemulsion” (Firmenich SA, priority 2017, dated 2022).

Assays:
[1] = logP of fragrance raw materials and fragrances
[2] = physchem
[3] = single raw materials of fragrances F1-F4 (Tables 1-4)

| Compound | logP [1] | further results |
| --- | --- | --- |
| 1-OXA-12/13-CYCLOHEXADECEN-2-ONE [HABANOLIDE ®] | – | logP [1, 3]: 4.88 |
| 2/3-METHYLBUTYL ACETATE [AMYL ACETATE] | – | logP [1, 3]: 2.26 |
| CCCC(C)C(=O)OCC (racemic) [(+ −)-ETHYL 2-METHYLPENTANOATE] | 2.76 | – |
| CCCCCCC1CCC(=O)O1 (racemic) [DECALACTONE CP, (+ −)-4-DECANOLIDE] | 2.72 | – |
| C=CC(C)CCCC(C)(C)O (racemic) [DIHYDROMYRCENOL PURE, (+ −)-2,6-DIMETHYL-7-OCTEN-2-OL] | 3.47 | – |
| CCC1CCC(=O)O1 (racemic) [GAMMA HEXALACTONE, (+ −)-4-HEXANOLIDE] | – | logP [2]: 0.6 |
| CC(=O)/C(C)=C/C1C(C)=CCCC1(C)C (racemic) [ISORALDEINE 70 P, (+ −)-(3E)-3-methyl-4-(2,6,6-trimethyl-2-cyclohexen-1-yl)-3-buten-2-one] | 4.84 | – |
| CC1/C=C/CCCCCCCCCCC(=O)C1 (racemic) [MUSCENONE DELTA, (+ −)-(4E)-3-METHYL-4-CYCLOPENTADECEN-1-ONE] | 5.75 | – |
| CCCCCC1(C)CCC(C)(C)C1=O (racemic) [VELOUTONE, (+ −)-2,2,5-trimethyl-5-pentylcyclopentanone] | 4.34 | – |
| Cc1ccc2c(c1)OCC(=O)CO2 [CALONE ®, 7-methyl-2H-1,5-benzodioxepin-3(4H)-one] | 2.43 | – |
| CC(C)(O)CCC1CCCCC1 [CORANOL, 4-CYCLOHEXYL-2-METHYL-2-BUTANOL] | 3.98 | – |
| CCOc1cc(C=O)ccc1O [ETHYL VANILLIN, 3-ethoxy-4-hydroxybenzaldehyde] | – | logP [2]: 1.58 |
| O=C1CCCCCCCCCCCCCCO1 [EXALTOLIDE ®, oxacyclohexadecan-2-one] | 6.15 | – |
| CCOC(=O)CC1(C)OCCO1 [FRUCTONE ®, ETHYL 2-METHYL-1,3-DIOXOLANE-2-ACETATE] | 1.3 | – |
| CC(C)=CCCC(C)=CCO [GERANIOL LJ] | 3.47 | – |
| CCC(=O)OCC(C)(C)O[C@@H](C)[C@@H]1CCCC(C)(C)C1 [HELVETOLIDE ®, (+)-(1S,1′R)-2[1-(3′,3′-DIMETHYL-1′-CYCLOHEXYL)ETHOXY]-2-METHYLPROPYL PROPANOATE] | – | logP [1, 3]: 5.51 |
| CC1=CC(C)C(C=O)C(C)C1 (centres unmarked) [ISOCYCLOCITRAL] | – | logP [1, 3]: 3.27 |
| COC(=O)/C=C/c1ccccc1 [METHYL CINNAMATE, METHYL (E)-3-PHENYL-2-PROPENOATE] | 2.62 | – |
| COC(=O)c1c(C)cc(O)c(C)c1O [MOUSSE CRISTAL, METHYL 2,4-DIHYDROXY-3,6-DIMETHYLBENZOATE] | 3.22 | – |
| OCCCc1ccccc1 [PHENYLPROPYL ALCOHOL, 3-PHENYL-1-PROPANOL] | – | logP [1, 3]: 1.88 |
| CC(C)=CC1CC(C)CCO1 (centres unmarked) [ROSE OXIDE, TETRAHYDRO-4-METHYL-2-(2-METHYL-1-PROPENYL)-2H-PYRAN] | 3.58 | – |
| CCC(=O)OC1CC2CC1C1CC=CC21 (centres unmarked) [VERDYL PROPIONATE, TRICYCLO[5.2.1.0(2,6)]DEC-3-EN-8-YL PROPANOATE] | 3.34 | – |
| ALLYL (2/3-METHYLBUTOXY)ACETATE [ALLYL AMYL GLYCOLATE] | – | logP [1, 3]: 2.34 |
